Entries after “also recorded” stand apart in the source; their conditions may differ.
B1: rA4: recombinant polypeptide SEQ ID NO:6, secreted form of rat amelogenin gene splice product, exons 2, 3, 4, 5, 6d and 7 (protein)
chain: MPLPPHPGSPGYINLSYEKSHSQAINTDRTALVLTPLKWYQSMIRQPPLSPILPELPLEAWPATDKTKREEVD
modifications: Recombinant rat amelogenin
B2: rB4: recombinant full-length rat amelogenin, exons 2, 3, 4, 5, 6 and 7 (protein, UniProt P63278 1-210, looked up)
chain: MGTWILFACLLGAAFAMPLPPHPGSPGYINLSYEKSHSQAINTDRTALVLTPLKWYQSMIRQPYPSYGYEPMGGWLHHQIIPVLSQQHPPSHTLQPHHHLPVVPAQQPVAPQQPMMPVPGHHSMTPTQHHQPNIPPSAQQPFQQPFQPQAIPPQSHQPMQPQSPLHPMQPLAPQPPLPPLFSMQPLSPILPELPLEAWPATDKTKREEVD
modifications: full-length

Legend:
[1] = test system: embryonic muscle fibroblasts (EMF); test: EMF [35S]-SO4-incorporation assay (sulfate incorporation into proteoglycan); type: cell-based, rat; conditions: for activity in directing change in phenotype of embryonic rat muscle fibroblasts in vitro: compared with rBMP-2
Excerpt: Embryonic Muscle Fibroblast (EMF) Tissue Culture Assay Embryonic Muscle Fibroblasts. Rat EMF cells were derived from the thigh muscles of 20 day old Sprague Dawley rat embryos for use in primary tissue culture assays using a modification of the Koskinen harvesting technique (Koskinen et al., 1985), and grown in growth media (GM) [α-Modified Eagle's Medium (αMEM , Life Technologies, Gaithersburg, Md.), containing 10% heat inactivated fetal bovine serum (FBS), 1% Penicillin/Streptomycin (P/S)] in 5% O2/95% air at 37° C. EMFs were frozen at passage 2 (P-2).
Short Term Culture and Labeling with ^35SO4—Sulfate. The EMFs were plated (day 0) at a concentration of 10^4 cells per well in a 96 well plate which had been precoated with 100 μl of a 50 μg/ml solution of type I Rat Tail Collagen (Collaborative Biomedical Products). The cells were grown for 5 days in GM. On day 5, the cells were conditioned by removing the GM and adding conditioning media (CM) (αMEM containing 0.5% FBS, 1 % P/S) for 24 hours. This media was replaced with 100 μl of fresh CM, just prior to the addition of the test factors (hour 0). Test factors were added to test wells in triplicate. PBS/0. […] 1% BSA, were used as positive controls. Four hours following the addition of factors, the cells were labeled with 1 μCi ^35S—SO4/10 μl sterile PBS/well/96 well plate for 20 hours.
Assay of ^35S Sulfate Incorporation Into Proteoglycans in the Medium. In a departure from the Koskinen et al. (1985) protocol, glycosaminoglycan synthesis was routinely determined by the measurement of incorporation of ^35S sulfate (ICM Biomedical, Costa Mesa, Calif.) into the total cetylpyridinium chloride (CPC)-precipitable materials in the media without prior papain digestion. […] The total medium from each well (˜115 μl) was placed into a 13×100 mm glass culture tube. 150 μl of 100 μg/ml Chondroitin Sulfate A Sodium Salt (Sigma, St. Louis, Mo.) at 4° C. (buffer C), was added to each tube to serve as a carrier. 500 μl of 2.0 mM MgSO4. 4° C. (buffer B), was added. The mixture was incubated in a 37° C. water bath with shaking for 30 minutes. One ml of 1% CPC in 0.02M NaCl (buffer D) was added and incubated at 37° C. for 60 minutes in the water bath.
The samples were filtered through Whatman GF/A glass microfibre filters using a Millipore 12 well filtration device. The contents of each glass tube were individually poured into one of the wells under suction. The tube and filters were washed with buffer B 3 times. The filters were allowed to dry briefly, and were transferred to a scintillation vial. Then 5 ml scintillation cocktail was added per vial and the radioactive counts were measured in the scintillation counter.
In vitro assay for chondrogenic activity: The purified recombinant proteins were tested for biological activity by the assay for enhanced incorporation of ^35S—SO4 into proteoglycan (8,11) by embryonic rat muscle fibroblasts (EMF). The EMF were seeded onto type I collagen coated 96 well plates, with an initial loading of 10^4 cell/well. The cells were grown to near confluence in alpha MEM, 10% FBS, 1% Pen/Strep in 5 days. At day 5 the growth media was replaced with conditioning media (CM), alpha MEM, 0.5% FBS, 1% Pen/Strep, and grown for an additional 24 h. Fresh CM containing the factors to be tested, was added at the concentrations noted. Four hours later, 1 μCi^35 S—SO4 in 10 μL sterile PBS was added per well, and incubation was continued for 20 h. The ^35S—SO4 incorporated into secreted proteoglycan was determined by precipitation of the proteoglycan with cetyl pyridinium chloride, as described above, followed by scintillation counting of the precipitate. The cell layer was trypsinized and the number of cells counted.

[2] = test system: quadriceps of Long-Evans rats; test: In vivo osteogenic activity, poly(lactide)-poly(glycolide) scaffold implants in quadriceps; design: species or system rat; conditions: for mineral deposition in implants, Alizarin Red and von Kossa staining / radiograph of implants after excision, mineralization pattern / vascularization, cell infiltration and extracellular matrix in implants (H&E) / ingrowth of capillaries and extracellular matrix formation, r(A-4) versus rA4 implants: 4 weeks; for vascularization, cell infiltration and extracellular matrix in implants (H&E): FIG. 15; for activity in inducing onset of osteogenesis in muscle implants in vivo: compared with rBMP-2
Procedure: In vivo osteogenic activity. The recombinant proteins, Emdogain and controls were each included in a bioabsorbable polymer matrix implants. The implants were prepared in poly (lactide)-poly(glycolide) scaffolds by the procedure of Whang et al. (1998) with 167 μg per implant. Implants were placed in the quadriceps of the hind legs of 100 g, 4 week old, male Long-Evans rats. Each animal received a negative control implant containing 167 μg of BSA in PBS. The implants were kept in place for 28 days. The implants were removed and radiographed, then they were fixed in 4% paraformaldehyde, dehydrated in graded ethanol and embedded in paraffin. Sections (7μ thick) were cut and stained with either Von Kossa or Alizarin Red dyes, both of which can indicate the presence of mineralized deposits containing divalent cations. To assure that the stains seen were calcific deposits, serial sections were treated with 5% EGTA for 10 min before staining.

[3] = test system: embryonic rat muscle fibroblasts (EMF); test: Cell number of EMF after exposure to factors; type: cell-based; conditions: after 5 days in culture, after a 24 h exposure
Procedure: In vitro assay for chondrogenic activity: The purified recombinant proteins were tested for biological activity by the assay for enhanced incorporation of ^35S—SO4 into proteoglycan (8,11) by embryonic rat muscle fibroblasts (EMF). The EMF were seeded onto type I collagen coated 96 well plates, with an initial loading of 10^4 cell/well. The cells were grown to near confluence in alpha MEM, 10% FBS, 1% Pen/Strep in 5 days. At day 5 the growth media was replaced with conditioning media (CM), alpha MEM, 0.5% FBS, 1% Pen/Strep, and grown for an additional 24 h. Fresh CM containing the factors to be tested, was added at the concentrations noted. Four hours later, 1 μCi^35 S—SO4 in 10 μL sterile PBS was added per well, and incubation was continued for 20 h. The ^35S—SO4 incorporated into secreted proteoglycan was determined by precipitation of the proteoglycan with cetyl pyridinium chloride, as described above, followed by scintillation counting of the precipitate. The cell layer was trypsinized and the number of cells counted. Incorporation is presented as counts per minute per cell ×10^3. Recombinant human BMP2 (A kind gift from the Genetics Institute, Boston, Mass.) and the bioactive crude S100 fractions from rat incisor dentin (Amar et al., 1991) and/or bovine dentin (see Example 1) were used as the positive controls. […]

Row | Molecule | activity in directing change in phenotype of embryonic rat muscle fibroblasts in vitro [1] | concentration as low as which production of 35S-SO4-labeled proteoglycan was stimulated ([1]; monolayer culture, FIG. 13) [ng/mL] | concentration as low as which production of 35S-SO4-labeled proteoglycan was stimulated (molar) ([1]; monolayer culture, FIG. 13) [pM] | alkaline phosphatase in implants ([2]; 167 μg per implant) | mineral deposition in implants, Alizarin Red and von Kossa staining ([2]; 167 μg per implant) | radiograph of implants after excision, mineralization pattern ([2]; 167 μg per implant) | vascularization, cell infiltration and extracellular matrix in implants (H&E) ([2]; 167 μg per implant) | mineral deposition in implants, Alizarin Red and von Kossa staining ([2]; 167 μg per implant, listed as (A-4)) | ingrowth of capillaries and extracellular matrix formation, r(A-4) versus rA4 implants [2] | activity in inducing onset of osteogenesis in muscle implants in vivo [2] | cell number (growth factor action) [3] | stimulation of 35S-SO4-labeled proteoglycan production at low concentrations, relative to r(A-4) ([1]; equivalent low (ng/ml) concentrations) | effect on sulfate incorporation compared with rhBMP-2 positive control ([1]; rhBMP-2 at 10 ng/ml) | mineral deposition in implants, Alizarin Red and von Kossa staining ([2]; 167 μg per implant, listed as A4)
1 | r(A-4): recombinant polypeptide SEQ ID NO:5, secreted form of rat amelogenin gene splice product, exons 2, 3, 5, 6d and 7 (MPLPPHPGSPGYINLSYEVLTPLKWYQSMIRQPPLSPILPELPLEAWPATDKTKREEVD; Recombinant rat amelogenin) | equivalent to rBMP-2 | 1 | ~140 | positive | stained strongly | heavier mineralization around the periphery | vascularized and filled with extracellular matrix; also recorded: infiltrated by many cells, and an abundant network of capillaries | highly positive for deposition of mineral | more prominent | equivalent to rBMP-2 | did not increase |  |  | 
2 | B1 | equivalent to rBMP-2 |  |  |  | calcified to a lesser extent | more punctate deposition of mineral | vascularized and filled with extracellular matrix; also recorded: vascularized but more sparsely than the r(A-4) implants |  | islands of capillaries, and the formation of a surrounding extracellular matrix was also evident | equivalent to rBMP-2 | increase | less active | quite comparable | some focal deposits of mineral
3 | B2 |  |  |  |  | inactive |  |  |  |  |  |  |  |  | 
